# From patent EP4722228A1, “NEW COMPOUND TARGETING MUSK AND USE THEREOF” (The University of Tokyo, priority 2023, dated 2024)
# Bridge positions count the residues as written; N and C are the ends. Square brackets hold non-standard residues; d marks the D form. Peptide text beside a SMILES is read from it. I, II: the chains in the order shown. * marks the point of attachment. Palmitoyl = CCCCCCCCCCCCCCCC(=O)*; PEG3 = NCCOCCOCCOCCC(=O)O; Dap = NC[C@H](N)C(=O)O
# Tested on: rat PTMG model using anti-acetylcholine receptor monoclonal antibody (mAb35)
# Assay: Wire-hang Test (Hanging Wire Test) in rat PTMG model
# Assay type: in vivo
# Conditions: approx. 30 hours after antibody
# Description: (§1) 5-week-old female rats (n=20, LEW/CrlCrlj, 4 weeks old when carried in, Jackson Laboratory Japan) were divided into four groups (Group A, Group B, Group C, and Group D) using body weight measurement results as indexes. Vehicle was administered to Group A, and the test compound MuSK7-pal dissolved in vehicle was administered intravenously to each of Group B (3 mg/kg), Group C (2 mg/kg), and Group D (1 mg/kg) (Day 0). Two hours after intravenous administration, an anti-nicotinic acetylcholine receptor monoclonal antibody (mAb35, National Hospital Organization Nagasaki Kawatana Medical Center) dissolved in PBS (pH 7.4) as a drug for inducing the pathology of myasthenia gravis was administered intraperitoneally to all animals at 200 µg/rat (Day 0). The vehicle, which was a solvent of the compound, was phosphate-buffered saline (PBS) at pH 7.4 containing 20% hydroxypropyl-β-cyclodextrin and 0.02% polysorbate 80 (the same applies to Example 3(2)).
# Approximately 30 hours after antibody administration, the muscle strength of the rats was measured using a lid (made of wire mesh) of a lidded plastic cage (Clean 200-TPX cage; CL-0108-2, CLEA Japan, Inc.). Specifically, the rats were left for 15 minutes or longer, and after confirming that they were in a resting state, they were placed on the cage lid. Next, the cage lid was lightly shaken about three times so that the rats would grasp the cage lid, and the cage lid was turned upside down. The inverted lid was held at a height (about 60 cm from the floor), which was high enough to prevent the rats from getting down easily but low enough not to injure them if they fell. The latency until the rats fell from the cage lid was measured for up to 120 seconds.
# as §1, with “(n=24,” for “(n=20,”, “(0.5” for “(3”, “(0.25” for “(2”, “(0.1” for “(1”, “0).” for “0). The vehicle, which was a solvent of the compound, was phosphate-buffered saline (PBS) at pH 7.4 containing 20% hydroxypropyl-β-cyclodextrin and 0.02% polysorbate 80 (the same applies to Example 3(2)).”
# The Wire-hang Test was performed approximately 30 hours after antibody administration. The implementation procedure was the same as that in (1) B above.
# 5-week-old female rats (LEW/CrlCrlj, 4 weeks old when carried in, Jackson Laboratory Japan) were divided into three groups (Group A, Group B, and Group C) using body weight measurement results as indexes. The test compound (tetramer of Ub012 (EAAAK)3) dissolved in vehicle was administered intravenously to Group A (5 mg/kg) (n=5), the test compound (tetramer of Ub012(ΔGG) (EAAAK)3) dissolved in vehicle was administered intravenously to Group B (5 mg/kg) (n=5), and vehicle was administered intravenously to Group C (n=5), respectively (Day 0). Two hours after intravenous administration, an anti-nicotinic acetylcholine receptor monoclonal antibody (mAb35, National Hospital Organization Nagasaki Kawatana Medical Center) dissolved in PBS (pH 7.4) as a drug for inducing the pathology of myasthenia gravis was administered intraperitoneally to all animals at 200 µg/rat (Day 0).
# The Wire-hang Test was performed approximately 30 hours after antibody administration. The implementation procedure was the same as that in Example 3(1) B.
structure (smiles),measurement,setting,value
"CCCCCCCCCCCCCCCC(=O)NCCCC[C@H](NC(=O)[C@H](CNC(=O)CCOCCOCCOCCNC(=O)CNC(=O)[C@@H]1CSCC(=O)N[C@H](Cc2ccc(O)cc2)C(=O)N2CCC[C@H]2C(=O)N[C@@H](CO)C(=O)N[C@@H](Cc2ccc(O)cc2)C(=O)N[C@@H](Cc2c[nH]cn2)C(=O)N[C@@H]([C@@H](C)O)C(=O)N[C@@H](CC(N)=O)C(=O)N[C@@H](C(C)C)C(=O)N[C@@H](C(C)C)C(=O)N[C@@H](C)C(=O)N[C@@H](CO)C(=O)N[C@@H](CC(C)C)C(=O)N[C@@H](CCCCN)C(=O)N[C@@H](CCCNC(=N)N)C(=O)N1)NC(=O)CCOCCOCCOCCNC(=O)CNC(=O)[C@@H]1CSCC(=O)N[C@H](Cc2ccc(O)cc2)C(=O)N2CCC[C@H]2C(=O)N[C@@H](CO)C(=O)N[C@@H](Cc2ccc(O)cc2)C(=O)N[C@@H](Cc2c[nH]cn2)C(=O)N[C@@H]([C@@H](C)O)C(=O)N[C@@H](CC(N)=O)C(=O)N[C@@H](C(C)C)C(=O)N[C@@H](C(C)C)C(=O)N[C@@H](C)C(=O)N[C@@H](CO)C(=O)N[C@@H](CC(C)C)C(=O)N[C@@H](CCCCN)C(=O)N[C@@H](CCCNC(=N)N)C(=O)N1)C(N)=O [MuSK7-pal] (I: {CH2CO}-[dY]PSYHTNVVASLKRCG[PEG3][Dap]K(Palmitoyl)-NH2 / II: {CH2CO}-[dY]PSYHTNVVASLKRCG[PEG3]; amide I:18-II:C; thioether I:N-I:15, II:N-II:15)",mean latency to fall,"0.1 mg/kg intravenously (Group D, Example 3(2))",25.3 s
same,mean latency to fall,"0.25 mg/kg intravenously (Group C, Example 3(2))",32.3 s
same,mean latency to fall,"0.5 mg/kg intravenously (Group B, Example 3(2))",11.3 s
same,mean latency to fall,"1 mg/kg intravenously (Group D, Example 3(1)), max 120 seconds",69.6 s
same,mean latency to fall,"2 mg/kg intravenously (Group C, Example 3(1)), max 120 seconds",29.2 s
same,mean latency to fall,"3 mg/kg intravenously (Group B, Example 3(1)), max 120 seconds",17.6 s
